According to patent US9090632B2, “Bicyclic oxazole and thiazole compounds and their use as allosteric modulators of mGluR5 receptors” (Vanderbilt University, priority 2010, dated 2015):

Molecular target: human mGluR5 (Homo sapiens, UniProt P41594)
Assay: Cell-based functional Ca2+ mobilization assay, potentiation of glutamate EC20 response (H10H cell-line)
Conditions: H10H cell-line expressing recombinant human mGluR5; for Emax (%) / Emax: in presence of glutamate EC20, normalized to maximal glutamate response; for pEC50 / EC50: potentiation in presence of glutamate EC20
Protocol: Human embryonic kidney (HEK) cells transfected with rat mGluR5 were plated in clear bottom assay plates for assay in a Functional Drug Screening System (FDSS). In the alternative assay, HEK cells transfected with human mGluR5 were plated for assay in the FDSS. In some cases the HEK cells transfected with human mGluR5 are the H10H cell line. Alternatively, the HEK cells transfected with human mGluR5 are the H12H cell line. […] The cells were loaded with a Ca^2+-sensitive fluorescent dye (e.g., Fluo-4), and the plates were washed and placed in the FDSS instrument. After establishment of a fluorescence baseline for about three seconds, the compounds of the present invention were added to the cells, and the response in cells was measured. Five minutes later, an mGluR5 agonist (e.g., glutamate, 3,5-dihydroxyphenylglycine, or quisqualate) was added to the cells, and the response of the cells was measured. Potentiation of the agonist response of mGluR5 by the compounds in the present invention was observed as an increase in response to non-maximal concentrations of agonist (here, glutamate) in the presence of compound compared to the response to agonist in the absence of compound.
The above described assay can be operated in two modes. In the first mode, a range of concentrations of the present compounds were added to cells, followed by a single fixed concentration of agonist. If a compound acted as a potentiator, an EC50 value for potentiation and a maximum extent of potentiation by the compound at this concentration of agonist was determined by non-linear curve fitting. In the second mode, several fixed concentrations of the present compounds were added to various wells on a plate, followed by a range of concentrations of agonist for each concentration of present compound; the EC50 values for the agonist at each concentration of compound were determined by non-linear curve fitting. A decrease in the EC50 value of the agonist with increasing concentrations of the present compounds (a leftward shift of the agonist concentration-response curve) is an indication of the degree of mGluR5 potentiation at a given concentration of the present compound. An increase in the EC50 value of the agonist with increasing concentrations of the present compounds (a rightward shift of the agonist concentration-response curve) is an indication of the degree of mGluR5 antagonism at a given concentration of the present compound. The second mode also indicates whether the present compounds also affect the maximum response to mGluR5 to agonists.
Human mGluR5a cDNA in pCMV6-XL6 mammalian expression plasmid was purchased from OriGene Technologies, Inc. (catalogue number SC326357) and subcloned into pcDNA3.1(−). Human embryonic kidney (HEK) 293A cells were then transfected with human mGluR5a pcDNA3.1(−) using LipofectAmine 2000 (Invitrogen) and monoclones were selected and tested for functional response using a Ca^2+ mobilization assay. Monoclones were named for the species (“H” for human) plus the location on the plate (e.g. “10H”).
HEK cells transfected with the human mGluR5a receptor were plated at 15,000 cells/well in clear-bottomed poly-D-lysine-coated assay plates (BD Falcon) in glutamate-glutamine-free growth medium and incubated overnight at 37° C. and 5% CO2. The cell-line used to obtain the data reported herein was the H10H cell-line expressing the human mGluR5 receptor. Although the H10H cell-line was used to obtain the data shown herein, the H12H cell-line expressing the human mGluR5 receptor can also be used in these assays. The following day, the growth medium was removed and the cells were washed with assay buffer containing 1× Hank's balanced salt solution (Invitrogen, Carlsbad, Calif.), 20 mM HEPES, 2.5 mM probenecid, pH 7.4 and left with 20 μL of this reagent. Following this step, the cells were loaded with calcium indicator dye, fluo-4 AM, to a final concentration of 2 μM and incubated for 40-45 min at 37° C. […]

Sequence of human mGluR5 (P41594 21-1180 isoform P41594-2 limits assumed): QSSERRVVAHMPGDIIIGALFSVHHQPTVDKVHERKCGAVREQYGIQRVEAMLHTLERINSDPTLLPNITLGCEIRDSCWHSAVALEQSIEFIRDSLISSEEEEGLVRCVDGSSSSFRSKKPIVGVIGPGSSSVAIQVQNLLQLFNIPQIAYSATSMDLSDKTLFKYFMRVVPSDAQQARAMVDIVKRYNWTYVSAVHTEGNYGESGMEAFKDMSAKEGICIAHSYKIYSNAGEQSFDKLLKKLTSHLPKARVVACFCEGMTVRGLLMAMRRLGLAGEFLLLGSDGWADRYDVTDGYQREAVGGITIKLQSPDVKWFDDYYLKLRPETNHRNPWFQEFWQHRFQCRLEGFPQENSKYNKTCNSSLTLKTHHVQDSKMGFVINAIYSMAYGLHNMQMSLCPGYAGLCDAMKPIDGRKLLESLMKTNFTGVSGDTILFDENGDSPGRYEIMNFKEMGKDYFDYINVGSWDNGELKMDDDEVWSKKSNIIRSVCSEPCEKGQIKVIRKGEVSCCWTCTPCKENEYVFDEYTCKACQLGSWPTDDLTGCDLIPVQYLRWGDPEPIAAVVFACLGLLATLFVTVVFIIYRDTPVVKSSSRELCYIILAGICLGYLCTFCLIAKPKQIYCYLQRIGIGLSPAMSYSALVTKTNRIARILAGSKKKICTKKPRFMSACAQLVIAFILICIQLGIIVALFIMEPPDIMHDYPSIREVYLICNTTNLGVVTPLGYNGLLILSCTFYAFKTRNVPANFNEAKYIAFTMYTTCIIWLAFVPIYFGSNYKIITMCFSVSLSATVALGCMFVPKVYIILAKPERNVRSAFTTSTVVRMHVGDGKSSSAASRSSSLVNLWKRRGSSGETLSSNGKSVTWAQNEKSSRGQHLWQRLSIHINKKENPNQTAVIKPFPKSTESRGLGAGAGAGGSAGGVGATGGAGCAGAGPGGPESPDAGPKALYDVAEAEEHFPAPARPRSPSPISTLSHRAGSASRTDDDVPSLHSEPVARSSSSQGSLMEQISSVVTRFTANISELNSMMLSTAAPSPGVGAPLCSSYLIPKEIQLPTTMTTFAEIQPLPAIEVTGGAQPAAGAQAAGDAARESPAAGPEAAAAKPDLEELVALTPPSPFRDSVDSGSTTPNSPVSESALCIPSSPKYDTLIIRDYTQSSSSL

SMILES	Emax (%)	pEC50	Emax [%]	EC50 [µM]	mGluR5 activity type (footnote)
CC(C)(C)C(=O)N1CCc2nc(COc3ccccc3)oc2C1 [Example B142]					**The indicated compound is a mGluR5 antagonist.
O=C(c1cnc2ccccc2n1)N1CCc2nc(COc3ccccc3)oc2C1 [Example B93]	52	5.73			
O=C(c1cccc(F)c1F)N1CCc2nc(COc3cccc(F)c3)oc2C1 [Example B28]	72	6.24			
O=C(Cc1c[nH]cn1)N1CCc2nc(COc3ccccc3)oc2C1.O=C(O)C(F)(F)F [Example B155]	30	<4.52			
O=C(c1ccc(F)cc1)N1CCc2nc(COc3ccncc3)oc2C1 [Example B73]	73	5.78			
O=C(c1ccc2nccnc2c1)N1CCc2nc(COc3ccccc3)oc2C1 [Example B91]	59	5.63			
O=C(C1CC1)N1CCc2nc(COc3ccccc3)oc2C1 [Example B32]			39	3.02	
O=C(c1ccc(S(F)(F)(F)(F)F)cc1)N1CCc2nc(COc3ccccc3)oc2C1 [Example B52]	51	5.24			
O=C(c1ccc(F)cc1)N1CCc2nc(COc3cccc(F)c3)oc2C1 [Example B8, 5-(4-fluorobenzoyl)-2-[(3-fluorophenoxy)methyl]-4,5,6,7-tetrahydro-oxazolo[5,4-c]pyridine]			74	0.219	
O=C(c1ccc(F)cc1)N1CCc2nc(COc3ccc(F)cc3)oc2C1 [Example B10]		6.18	75		
O=C(c1n[nH]c2ncccc12)N1CCc2nc(COc3ccccc3)oc2C1 [Example B147]			74	0.363	
O=C(c1ccc(F)cc1)N1CCc2nc(CCc3ccccc3)oc2C1 [Example B131, 5-[(4-fluorophenyl)carbonyl]-2-(2-phenylethyl)-4,5,6,7-tetrahydro[1,3]oxazolo[5,4-c]pyridine]			24	> 30.2	
O=C(N1CCc2nc(COc3ccccc3)oc2C1)C1(c2ccccc2)CC1 [Example B77]	62	6.00			
O=C(CC(F)(F)F)N1CCc2nc(COc3ccccc3)oc2C1 [Example B116]			33	> 10	
O=C(C1CCc2cc(F)ccc2O1)N1CCc2nc(COc3ccccc3)oc2C1 (centres unmarked) [Example B82]	62	5.7			
N#Cc1cc(F)cc(C(=O)N2CCc3nc(COc4cccc(F)c4)oc3C2)c1 [Example B92]	52	6.73			
O=C(c1ccc(F)c(F)c1)N1CCc2nc(COc3cccc(F)c3)oc2C1 [Example B29]	75	6.62			
O=C(c1ccc(F)cc1)N1CCc2nc(COc3ccc(C(F)(F)F)cc3)oc2C1 [Example B128]	25	<4.52			
O=C(CC1CC1)N1CCc2nc(COc3ccccc3)oc2C1 [Example B2, 5-(cyclopropylacetyl)-2-(phenoxymethyl)-4,5,6,7-tetrahydro[1,3]oxazolo[5,4-c]pyridine]			58	3.55	
O=C(c1ccc(F)cc1)N1CCc2nc(COc3cnccn3)oc2C1 [Example B152]			36	> 10	
CC(Oc1ccccc1)C(=O)N1CCc2nc(COc3ccccc3)oc2C1 (centres unmarked) [Example B81]			63	1.91	
O=C1CCC(C(=O)N2CCc3nc(COc4ccccc4)oc3C2)N1 (centres unmarked) [Example B105]	22	<4.52			
Cc1cccc(OCc2nc3c(o2)CN(C(=O)c2ccc(F)cc2)CC3)n1 [Example B133]			32	> 10	
O=C(OCc1ccccc1)N1CCc2nc(COc3ccccc3)oc2C1 [Example B20]	72	5.82			
O=C(c1ccc(F)cc1)N1Cc2nc(COc3ccccc3)oc2C1 [Example B21]	81	6.05			
O=C(c1ccc(F)cc1F)N1CCc2nc(COc3ccccc3)sc2C1 [Example B12]	69	6.06			
O=C(c1ccc(F)cc1)N1CCc2nc(/C=C/c3ccccc3)oc2C1 [Example B14]			48	1.55	

Further lines, with some results ahead:

Emax (%)	pEC50	Emax [%]	EC50 [µM]	SMILES	mGluR5 activity type (footnote)
69	6.60			O=C(c1c[nH]c2ccccc12)N1CCc2nc(COc3ccccc3)oc2C1 [Example B117]	
69	5.33			O=C(c1cccnc1)N1CCc2nc(COc3ccccc3)oc2C1 [Example B18]	
		32	> 30.2	O=C(c1ncc[nH]1)N1CCc2nc(COc3ccccc3)oc2C1 [Example B153]	
		36	> 10	Cc1ncc(C(=O)N2CCc3nc(COc4ccccc4)oc3C2)cn1 [Example B135]	
46	<5			O=C(c1cc[nH]n1)N1CCc2nc(COc3ccccc3)oc2C1 [Example B115]	
		68	0.49	O=C(c1ccccc1F)N1CCc2nc(COc3ccccc3)oc2C1 [Example B9]	
		76	3.39	O=C(c1ccc(F)cc1)N1CCc2nc(COc3ccccc3)oc2CC1 [Example B4, 6-[(4-fluorophenyl)carbonyl]-2-(phenoxymethyl)-5,6,7,8-tetrahydro-4H-[1,3]oxazolo[4,5-d]azepine]	
45	<5			O=C(c1cnn[nH]1)N1CCc2nc(COc3ccccc3)oc2C1 [Example B125]	
50	<5			O=C(c1cn[nH]c1)N1CCc2nc(COc3ccccc3)oc2C1 [Example B56]	
		73.5	0.0661	O=C(c1ccc(Cl)s1)N1CCc2nc(COc3ccccc3)oc2C1 [Example B109]	
		10	> 30.2	O=C(c1ccc(=O)[nH]c1)N1CCc2nc(COc3ccccc3)oc2C1 [Example B139]	
		22	> 10	Cc1noc(C(=O)N2CCc3nc(COc4ccccc4)oc3C2)n1 [Example B119]	
86	6.60			O=C(c1ccc(F)c(F)c1)N1CCc2nc(COc3ccccc3)oc2C1 [Example B17]	
27	<4.52			COCC(=O)N1CCc2nc(COc3ccccc3)oc2C1 [Example B138]	
		31	0.603	O=C(c1ccc[nH]1)N1CCc2nc(COc3ccccc3)oc2C1 [Example B58]	
		40.5	2.95	O=C(c1cnco1)N1CCc2nc(COc3ccccc3)oc2C1 [Example B59]	
12	<4.52			O=C(c1cc2ccccc2[nH]1)N1CCc2nc(COc3ccccc3)oc2C1 [Example B112]	
		50	6.03	Cc1ncccc1C(=O)N1CCc2nc(COc3ccccc3)oc2C1 [Example B41]	
58	<5			Cc1cccnc1C(=O)N1CCc2nc(COc3ccccc3)oc2C1 [Example B42]	
		56	> 10	O=C(c1ncccc1F)N1CCc2nc(COc3ccccc3)oc2C1 [Example B47]	
45	6.58			Cn1ccc(Cl)c1C(=O)N1CCc2nc(COc3ccccc3)oc2C1 [Example B113]	
57	6.70			Cc1ccc(C(=O)N2CCc3nc(COc4ccccc4)oc3C2)s1 [Example B110]	
43	<5			O=C(c1cnccn1)N1CCc2nc(COc3ccccc3)oc2C1 [Example B148]	
78	6.44			Cc1ccc(C(=O)N2CCc3nc(COc4ccccc4)oc3C2)n1C [Example B103]	
